Reference: EP2813216A1, “Stabilized amorphous ticagrelor” (Zentiva, a.s., priority 2013, dated 2014)

How the values were obtained:
[1] = low solubility, low permeability; cited from earlier work
[2] = Differential scanning calorimetry (DSC), glass transition temperature; format: physicochemical; details: neat substance (not a solid solution)
Description: DSC curves were measured with a Pyris 1 (Perkin Elmer) device. The sample charge was 3-4 mg, heating rate 10 °C/min. Nitrogen was used as a carrier gas (20 ml/min).
The products were characterized by XRPD and DSC analysis.
In all cases the Tg values were higher for solid solution of 1:2 ratio than those for 1:1 ratio. Therefore, the 1:2 API to polymer ratio was able to form more physically stable solid solutions. It is known that the physical stability of the solid solution is increased with a higher glass transition temperature (Hancock and Zografi, 1997).

glass transition temperature (Tg) [2] | Structure (SMILES) | Biopharmaceutical Classification System (BCS) class [1]
 | CCCSc1nc(N[C@@H]2C[C@H]2c2ccc(F)c(F)c2)c2nnn([C@@H]3C[C@H](OCCO)[C@@H](O)[C@H]3O)c2n1 [ticagrelor, (1S,2S,3R,5S)-3-[7-[(1R,2S)-2-(3,4-Difluorophenyl)cyclopropylamino]-5-(propylthio)-3H-[1,2,3]triazolo[4,5-d]pyrimidin-3-yl]-5-(2-hydroxyethoxy)cyclopentane-1,2-diol] | class IV
about 46 °C | CCCSc1nc(N[C@@H]2C[C@H]2c2ccc(F)c(F)c2)c2nnn([C@@H]3C[C@H](OCCO)[C@@H](O)[C@H]3O)c2n1 [Amorphous ticagrelor, (1S,2S,3R,5S)-3-[7-[(1R,2S)-2-(3,4-Difluorophenyl)cyclopropylamino]-5-(propylthio)-3H-[1,2,3]triazolo[4,5-d]pyrimidin-3-yl]-5-(2-hydroxyethoxy)cyclopentane-1,2-diol] | 
